Results: PubChem BioAssay (NCI)
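Method: 48-hour compound exposure of cells in 96-well plates, five concentrations, linear interpolation of endpoints. Abbreviation: GI50, concentration required for 50% inhibition of growth. TGI denotes the concentration required for complete inhibition of growth.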

Columns and labels:
Test in all cases: NCI anticancer screen, dose series, 48 h
[1] = test system: K-562 leukemia
[2] = test system: HL-60(TB) leukemia
[3] = test system: RPMI-8226 leukemia
[4] = test system: MDA-MB-231 breast
[5] = test system: UO-31 renal
[6] = test system: CCRF-CEM leukemia
[7] = test system: DU-145 prostate
[8] = test system: T-47D breast
[9] = test system: BT-549 breast
[10] = test system: A498 renal
[11] = test system: SN12C renal
[12] = test system: SR leukemia
[13] = test system: MDA-N
[14] = test system: KM12 colon
[15] = test system: ACHN renal
[16] = test system: SNB-19 CNS
[17] = test system: HCT-116 colon
[18] = test system: PC-3 prostate
[19] = test system: MOLT-4 leukemia
[20] = test system: NCI-H226 lung
[21] = test system: IGROV1 ovarian
[22] = test system: NCI-H23 lung
[23] = test system: 786-0 renal
[24] = test system: HS 578T breast
[25] = test system: OVCAR-8 ovarian
[26] = test system: M14 melanoma
[27] = test system: SK-MEL-2 melanoma
[28] = test system: NCI-H460 lung
[29] = test system: OVCAR-4 ovarian
[30] = test system: OVCAR-5 ovarian
[31] = test system: LOX IMVI melanoma
[32] = test system: SW-620 colon
[33] = test system: RXF 393 renal
[34] = test system: COLO 205 colon
[35] = test system: HCC-2998 colon
[36] = test system: U251 CNS
[37] = test system: SK-MEL-28 melanoma
[38] = test system: HT29 colon
[39] = test system: CAKI-1 renal
[40] = test system: MCF7 breast
[41] = test system: HCT-15 colon
[42] = test system: MDA-MB-435
[43] = test system: UACC-62 melanoma
[44] = test system: HOP-92 NSCLC
[45] = test system: A549 NSCLC
[46] = test system: SNB-75 CNS
[47] = test system: NCI/ADR-RES ovarian
[48] = test system: SK-MEL-5 melanoma
[49] = test system: NCI-H522 lung
[50] = test system: HOP-62 NSCLC
[51] = test system: MALME-3M melanoma
[52] = test system: SF-539 CNS
[53] = test system: SK-OV-3 ovarian
[54] = test system: TK-10 renal
[55] = test system: SF-268 CNS
[56] = test system: SF-295 CNS
[57] = test system: OVCAR-3 ovarian

SMILES: c1ccc2c(c1)Nc1cccc3c1c-2nc1ccccc13
- TGI [1]: 2.92 µM
- TGI [2]: 3.3 µM
- TGI [3]: 3.48 µM
- TGI [4]: 2.69 µM
- TGI [5]: 2.83 µM
- TGI [6]: 4.81 µM
- TGI [7]: 2.6 µM
- TGI [8]: 5.09 µM
- TGI [9]: > 100 µM
- TGI [10]: > 100 µM
- TGI [11]: 2.79 µM
- TGI [12]: 4.83 µM
- TGI [13]: 2.05 µM
- TGI [14]: 3.44 µM
- TGI [15]: 2.01 µM
- TGI [16]: > 100 µM
- TGI [17]: 1.79 µM
- TGI [18]: 2.43 µM
- TGI [19]: 1.78 µM
- TGI [20]: > 100 µM

SMILES: O=C(Nc1ccc(Cl)cc1)Nc1nccs1
- GI50 [21]: 1.26 µM
- TGI [21]: > 100 µM
- GI50 [22]: 11.5 µM
- TGI [22]: > 100 µM
- GI50 [23]: 11.1 µM
- TGI [23]: > 100 µM
- GI50 [24]: 1.33 µM
- TGI [24]: 34.1 µM
- GI50 [1]: 0.5 µM
- TGI [1]: > 100 µM
- GI50 [25]: 3.39 µM
- TGI [25]: > 100 µM
- GI50 [2]: 2.3 µM
- TGI [2]: 10.2 µM
- GI50 [26]: 0.543 µM
- TGI [26]: 27.5 µM
- GI50 [3]: 2.63 µM
- TGI [3]: 16.6 µM
- GI50 [4]: 3.18 µM
- TGI [4]: 41.5 µM
- GI50 [27]: 0.784 µM
- TGI [27]: 43.3 µM
- GI50 [28]: 0.487 µM
- TGI [28]: 57.3 µM
- GI50 [29]: 8.38 µM
- TGI [29]: > 100 µM
- GI50 [30]: 12.8 µM
- TGI [30]: > 100 µM
- GI50 [31]: 0.786 µM
- TGI [31]: > 100 µM
- GI50 [32]: 0.4 µM
- TGI [32]: > 100 µM
- GI50 [33]: 1.49 µM
- TGI [33]: 6.53 µM
- GI50 [5]: 4.29 µM
- TGI [5]: > 100 µM
- GI50 [6]: 1.93 µM
- TGI [6]: 62 µM
- GI50 [34]: 0.75 µM
- TGI [34]: 6.13 µM
- GI50 [7]: 3.82 µM
- TGI [7]: 71.9 µM
- GI50 [35]: 12.9 µM
- TGI [35]: 45.9 µM
- GI50 [36]: 3.44 µM
- TGI [36]: 26.9 µM
- GI50 [37]: 13.8 µM
- TGI [37]: > 100 µM
- GI50 [38]: 0.511 µM
- TGI [38]: 27.1 µM
- GI50 [39]: 2.36 µM
- TGI [39]: 54.8 µM
- GI50 [40]: 0.439 µM
- TGI [40]: > 100 µM
- GI50 [41]: 0.46 µM
- TGI [41]: > 100 µM
- GI50 [8]: 2.38 µM
- TGI [8]: > 100 µM
- GI50 [9]: 8.68 µM
- TGI [9]: 57.9 µM
- GI50 [42]: 0.207 µM
- TGI [42]: 0.585 µM
- GI50 [43]: 0.756 µM
- TGI [43]: 57.9 µM
- GI50 [10]: 0.518 µM
- TGI [10]: 16.9 µM
- GI50 [44]: 2.14 µM
- TGI [44]: 34 µM
- GI50 [11]: 5.22 µM
- TGI [11]: > 100 µM
- GI50 [12]: 0.45 µM
- TGI [12]: 62.6 µM
- GI50 [45]: 0.775 µM
- TGI [45]: > 100 µM
- GI50 [14]: 0.491 µM
- TGI [14]: 19.4 µM
- GI50 [46]: 2.02 µM
- TGI [46]: > 100 µM
- GI50 [47]: 0.575 µM
- TGI [47]: 30.1 µM
- GI50 [48]: 0.514 µM
- TGI [48]: 15.3 µM
- GI50 [15]: 2.25 µM
- TGI [15]: 43 µM
- GI50 [49]: 1.92 µM
- TGI [49]: 14.4 µM
- GI50 [50]: 15.1 µM
- TGI [50]: > 100 µM
- GI50 [51]: 3.37 µM
- TGI [51]: 54.1 µM
- GI50 [16]: 3.67 µM
- TGI [16]: > 100 µM
- GI50 [52]: 1.81 µM
- TGI [52]: 6.42 µM
- GI50 [53]: 5.04 µM
- TGI [53]: > 100 µM
- GI50 [54]: 10.2 µM
- TGI [54]: 93.1 µM
- GI50 [17]: 0.49 µM
- TGI [17]: 52.8 µM
- GI50 [18]: 2.79 µM
- TGI [18]: 40.3 µM
- GI50 [55]: 8.53 µM
- TGI [55]: 63.1 µM
- GI50 [56]: 2.73 µM
- TGI [56]: 34.7 µM
- GI50 [19]: 4.8 µM
- TGI [19]: 84.2 µM
- GI50 [20]: 4.46 µM
- TGI [20]: 57 µM
- GI50 [57]: 1.95 µM
- TGI [57]: 7.85 µM
